Experimental data from ChEMBL document CHEMBL1201862, “PubChem BioAssay data set” (2004).
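Values below derive from 48-hour exposures of cells grown in 96-well plates, with endpoints linearly interpolated between the two concentrations bracketing the appropriate inhibition level. GI50: concentration for 50% inhibition of growth.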 The source made the active and inactive calls. Rule as the data show it: active = GI50 up to about 1.1 µM and inactive = higher.

Columns and labels:
Assay in all cases: inhibition of tumour cell growth, NCI panel, 48 h
M14 = system: M14
LOX IMVI = system: LOX IMVI
SW-620 = system: SW-620
HCC 2998 = system: HCC 2998
SNB-75 = system: SNB-75
OVCAR-5 = system: OVCAR-5
SK-OV-3 = system: SK-OV-3
MOLT-4 = system: MOLT-4
IGROV-1 = system: IGROV-1
NCI-H460 = system: NCI-H460
HT-29 = system: HT-29
OVCAR-4 = system: OVCAR-4
A498 = system: A498
SK-MEL-5 = system: SK-MEL-5
SN12C = system: SN12C
NCI-H522 = system: NCI-H522
OVCAR-3 = system: OVCAR-3
TK-10 = system: TK-10
K562 = system: K562
CAKI-1 = system: CAKI-1

| SMILES | GI50 (M14) | GI50 (LOX IMVI) | GI50 (SW-620) | GI50 (HCC 2998) | GI50 (SNB-75) | GI50 (OVCAR-5) | GI50 (SK-OV-3) | GI50 (MOLT-4) | GI50 (IGROV-1) | GI50 (NCI-H460) | GI50 (HT-29) | GI50 (OVCAR-4) | GI50 (A498) | GI50 (SK-MEL-5) | GI50 (SN12C) | GI50 (NCI-H522) | GI50 (OVCAR-3) | GI50 (TK-10) | GI50 (K562) | GI50 (CAKI-1) |
| --- | --- | --- | --- | --- | --- | --- | --- | --- | --- | --- | --- | --- | --- | --- | --- | --- | --- | --- | --- | --- |
| CC(=O)OC1/C=C(\C)C(OC(C)=O)C/C=C(/C)CCC2C(/C=C/C1=O)C2(C)C (stereo not given) | > 100 µM (inactive) | > 100 µM (inactive) | > 100 µM (inactive) | > 100 µM (inactive) | 31.2 µM (inactive) | > 100 µM (inactive) | > 100 µM (inactive) | > 100 µM (inactive) | > 100 µM (inactive) | > 100 µM (inactive) | > 100 µM (inactive) | > 100 µM (inactive) | > 100 µM (inactive) | 92.9 µM (inactive) | > 100 µM (inactive) | 47.8 µM (inactive) | > 100 µM (inactive) | 64.7 µM (inactive) |  |  |
| O=C1N(C2CCCCC2)CC12CCCCC2 | > 100 µM (inactive) | > 100 µM (inactive) | > 100 µM (inactive) | > 100 µM (inactive) | > 100 µM (inactive) |  | > 100 µM (inactive) | > 100 µM (inactive) | > 100 µM (inactive) | > 100 µM (inactive) |  | > 100 µM (inactive) | > 100 µM (inactive) | > 100 µM (inactive) | > 100 µM (inactive) | > 100 µM (inactive) |  | > 100 µM (inactive) | > 100 µM (inactive) |  |
| CCOC(=O)c1ccc(C(=O)n2ccnc2)[nH]1 | > 100 µM (inactive) | > 100 µM (inactive) | > 100 µM (inactive) | > 100 µM (inactive) | 63.5 µM (inactive) | > 100 µM (inactive) |  | > 100 µM (inactive) | > 100 µM (inactive) | > 100 µM (inactive) |  | 84.3 µM (inactive) | > 100 µM (inactive) | > 100 µM (inactive) | > 100 µM (inactive) | > 100 µM (inactive) | > 100 µM (inactive) | > 100 µM (inactive) | > 100 µM (inactive) | > 100 µM (inactive) |
| c1ccc2c(c1)nnn2CNc1ccc(N2CCOCC2)cc1 | > 100 µM (inactive) | > 100 µM (inactive) | > 100 µM (inactive) | > 100 µM (inactive) | > 100 µM (inactive) |  | > 100 µM (inactive) | > 100 µM (inactive) | > 100 µM (inactive) | > 100 µM (inactive) | > 100 µM (inactive) | > 100 µM (inactive) | > 100 µM (inactive) |  | > 100 µM (inactive) | > 100 µM (inactive) | > 100 µM (inactive) | > 100 µM (inactive) | > 100 µM (inactive) |  |
| Cc1nc2n(c1/C=C1/C(=O)Nc3cccc(Cl)c31)CCS2 | > 100 µM (inactive) | 81.7 µM (inactive) | > 100 µM (inactive) | > 100 µM (inactive) | 17.5 µM (inactive) | > 100 µM (inactive) | 16.7 µM (inactive) | 35.2 µM (inactive) | 48.8 µM (inactive) | > 100 µM (inactive) | > 100 µM (inactive) |  | 30 µM (inactive) | 55.1 µM (inactive) | 25.1 µM (inactive) | 21.5 µM (inactive) | > 100 µM (inactive) | 37.7 µM (inactive) | 20.3 µM (inactive) | 46.3 µM (inactive) |
| O=C1NC2OCC(O)C(O1)C2O (stereo not given) | > 100 µM (inactive) | > 100 µM (inactive) | > 100 µM (inactive) |  | > 100 µM (inactive) | > 100 µM (inactive) | > 100 µM (inactive) | > 100 µM (inactive) | > 100 µM (inactive) | > 100 µM (inactive) | > 100 µM (inactive) | > 100 µM (inactive) | > 100 µM (inactive) | > 100 µM (inactive) | > 100 µM (inactive) | > 100 µM (inactive) | > 100 µM (inactive) | > 100 µM (inactive) | > 100 µM (inactive) | > 100 µM (inactive) |
| C(=C\c1csnn1)/c1cccnc1 | > 100 µM (inactive) | > 100 µM (inactive) | > 100 µM (inactive) | > 100 µM (inactive) | > 100 µM (inactive) | > 100 µM (inactive) | > 100 µM (inactive) | > 100 µM (inactive) |  | > 100 µM (inactive) | > 100 µM (inactive) | > 100 µM (inactive) | > 100 µM (inactive) |  | > 100 µM (inactive) | > 100 µM (inactive) | > 100 µM (inactive) | > 100 µM (inactive) | > 100 µM (inactive) |  |
| Cc1nc2ccc(S(=O)(=O)Nc3nccs3)cc2c(=O)n1NS(=O)(=O)c1nccs1 | > 100 µM (inactive) |  | 78.3 µM (inactive) | > 100 µM (inactive) | > 100 µM (inactive) | > 100 µM (inactive) | > 100 µM (inactive) | 28.5 µM (inactive) | > 100 µM (inactive) | 50.2 µM (inactive) | 41.5 µM (inactive) | > 100 µM (inactive) | > 100 µM (inactive) | 88.7 µM (inactive) | > 100 µM (inactive) | 60.8 µM (inactive) | > 100 µM (inactive) | > 100 µM (inactive) | 69.7 µM (inactive) | > 100 µM (inactive) |
| C=C1COC(/C=C(\C)CC/C=C(\C)CCl)C1 (stereo not given) | > 100 µM (inactive) | > 100 µM (inactive) | > 100 µM (inactive) | > 100 µM (inactive) | > 100 µM (inactive) | > 100 µM (inactive) | > 100 µM (inactive) | > 100 µM (inactive) | > 100 µM (inactive) | > 100 µM (inactive) | > 100 µM (inactive) | > 100 µM (inactive) | > 100 µM (inactive) | > 100 µM (inactive) | > 100 µM (inactive) | > 100 µM (inactive) | > 100 µM (inactive) | > 100 µM (inactive) | > 100 µM (inactive) |  |
| CC(C)=CCN1c2ccc(Cl)cc2NC(=O)CC1C (stereo not given) | 17.8 µM (inactive) | 17.8 µM (inactive) | 34.4 µM (inactive) | 44.4 µM (inactive) |  | 59.4 µM (inactive) | 34.7 µM (inactive) | 48.4 µM (inactive) | 21.8 µM (inactive) | 17.5 µM (inactive) | 17.5 µM (inactive) | 22 µM (inactive) | 21.8 µM (inactive) | 18 µM (inactive) | 19.6 µM (inactive) | 12 µM (inactive) | 18.3 µM (inactive) | 35.2 µM (inactive) | 65.6 µM (inactive) | 15.8 µM (inactive) |
| COc1ccc(-c2csc3c2[N+]2(C)C=CC=C2C3N2CCCC2)cc1 (stereo not given) | 29.8 µM (inactive) | 35 µM (inactive) | 24.4 µM (inactive) |  | 4.12 µM (inactive) | 39 µM (inactive) | 49.1 µM (inactive) | 27.5 µM (inactive) | 11.2 µM (inactive) | 16.1 µM (inactive) | 16.9 µM (inactive) | 46.8 µM (inactive) | 31.1 µM (inactive) | 8.59 µM (inactive) |  | 2.43 µM (inactive) | 13.3 µM (inactive) | 48.9 µM (inactive) | 6.61 µM (inactive) | > 100 µM (inactive) |
| C(=C\Nc1ccc(Oc2ccccc2)cc1)/C=N/c1ccc(Oc2ccccc2)cc1 |  | 15 µM (inactive) | 19 µM (inactive) | 15.9 µM (inactive) | 17.2 µM (inactive) | 25 µM (inactive) |  | > 10 µM (inactive) | 17.1 µM (inactive) | 16.7 µM (inactive) | 15.9 µM (inactive) | 17.1 µM (inactive) | 16.2 µM (inactive) |  | 14.8 µM (inactive) | 20 µM (inactive) | 19 µM (inactive) | 18.7 µM (inactive) | 22.5 µM (inactive) | 18.7 µM (inactive) |
| CC(C)C(=O)/C=C/c1ccc(Br)cc1 | 17.9 µM (inactive) | 17.3 µM (inactive) | 5.51 µM (inactive) | 17.1 µM (inactive) | 18.1 µM (inactive) | 14.4 µM (inactive) | 22.3 µM (inactive) | 19.2 µM (inactive) | 19.2 µM (inactive) | 14.9 µM (inactive) | 14.7 µM (inactive) | 25.4 µM (inactive) | 14.5 µM (inactive) | 12.7 µM (inactive) | 14.1 µM (inactive) | 12.2 µM (inactive) | 14.2 µM (inactive) | 16.9 µM (inactive) | 3.94 µM (inactive) |  |
| S=C(S)N1CCN(c2ccccc2)CC1 | > 100 µM (inactive) | 32.9 µM (inactive) | 71.9 µM (inactive) | 71.3 µM (inactive) | > 100 µM (inactive) | > 100 µM (inactive) |  |  | > 100 µM (inactive) |  | > 100 µM (inactive) |  | > 100 µM (inactive) | 20.7 µM (inactive) | > 100 µM (inactive) | > 100 µM (inactive) | > 100 µM (inactive) | > 100 µM (inactive) | 52.6 µM (inactive) | > 100 µM (inactive) |
| CCC1=C(C(C)=O)[C@@H]2CCCCC(C(=O)OC)[C@@H]2C1=O (stereo not given in full) | > 100 µM (inactive) |  | > 100 µM (inactive) | > 100 µM (inactive) | > 100 µM (inactive) | > 100 µM (inactive) | > 100 µM (inactive) | > 100 µM (inactive) | > 100 µM (inactive) | > 100 µM (inactive) | > 100 µM (inactive) | > 100 µM (inactive) | > 100 µM (inactive) | > 100 µM (inactive) | > 100 µM (inactive) | 88.1 µM (inactive) |  | > 100 µM (inactive) | > 100 µM (inactive) | > 100 µM (inactive) |
| Cc1cnc2nc(-c3ccc4ccccc4c3)cc(O)c2c1 | 0.547 µM (active) | 0.728 µM (active) | 0.359 µM (active) | 1.4 µM (inactive) | 0.391 µM (active) | 0.855 µM (active) | 0.578 µM (active) | 0.431 µM (active) | 0.843 µM (active) |  | 0.53 µM (active) | 0.659 µM (active) | 0.421 µM (active) |  | 0.966 µM (active) | 0.321 µM (active) |  | 2.4 µM (inactive) | 0.251 µM (active) |  |
